Here are results for one compound from US11547699B2, “[2-[(5-nitro-1,3-thiazol-2-yl)carbamoyl]phenyl]ethanoate for use in lymphangioleiomyomatosis and other diseases” (priority 2017, dated 2023).

SMILES strings stand for the structures.

Data set [1] concerns phosphorylation of the ribosomal protein S6 in MEF cells. As to the kind of experiment: rpS6 phosphorylation in MEF cells (ELISA and Western blotting), read-out for mTOR pathway activity. The settings on record: 60 minutes incubation. Format: cell-based, mouse. From the text: These assays are used to test the effect of a compound on the activity of the mTOR pathway. Phosphorylation of ribosomal protein rp60 is used as read-out for mTOR pathway activity. […] Thus, these assays mimic a disease causative mechanism.
MEFs are mouse embryo fibroblasts derived from TSC2 knockout (MEF110) and TSC2+ (MEF157) mice. Tsc2 mutations are known to cause tuberous sclerosis and lymphangioleiomyomatosis in humans.
All cells were maintained in DMEM tissue culture medium, with the addition of fetal calf serum to 10% to support cell proliferation, at 37° C. and 5% CO2.
In MEFs, ribosomal protein S6, which is a component of the 40S ribosome, and phosphorylated at Ser236 by p70 S6 kinase can be assayed by ELISA and Western blotting, using phospho-specific antibodies which detect both the human and the mouse forms of rpS6. This assay is predicitve of compounds with protective or therapetic activities for respiratory and vascular diseases, fibrotic diseases, or neurodegenerative diseases.
Cells were grown to 60-80% confluence in DMEM+10% serum. Medium was replaced with fresh serum free medium two hours before addition of test compound of the invention.
Compound was added as a 1:1000 dilution of the stock solution in DMSO. DMSO was added as a vehicle control, and samples were incubated for a further 60 minutes. […]

In data set [2] the test system is phosphorylation of the ribosomal protein S6 in 621-101 cells. In words: rpS6 phosphorylation in 621-101 cells (ELISA and Western blotting), read-out for mTOR pathway activity. The settings on record: 60 minutes incubation. The format is cell-based, human. Here is the method: These assays are used to test the effect of a compound on the activity of the mTOR pathway. Phosphorylation of ribosomal protein rp60 is used as read-out for mTOR pathway activity. […] Thus, these assays mimic a disease causative mechanism. 621-101 cells are human cells derived from an angiomyolipoma. They have verified TSC2 mutations and are the only disease-derived mutation-bearing cells used that are mimicking the disease Lymphangioleiomyomitosis. Cells were grown to 60-80% confluence in DMEM+10% serum. Medium was replaced with fresh serum free medium two hours before addition of test compound of the invention. Compound was added as a 1:1000 dilution of the stock solution in DMSO. DMSO was added as a vehicle control, and samples were incubated for a further 60 minutes. For ELISA, cells were harvested into 200 ul cell lysis buffer containing both protease and phosphatase inhibitors, to protect the phosphorylation status of rpS6. Lysates were stored at −80° C. prior to use. 50 ul of lysate per sample was used for the ELISA, which was carried out according to manufacturers' instructions. For Western blotting, cells were harvested into 200 ul cell lysis buffer containing both protease and phosphatase inhibitors and resolved by SDS-PAGE before transfer to PVDF membrane and incubation with anti-phospho-rpS6 and anti-total-rpS6 antibodies.

For the compound `CC(=O)Oc1ccccc1C(=O)Nc1ncc([N+](=O)[O-])s1` [the compound of the invention, [2-[(5-nitro-1,3-thiazol-2-yl)carbamoyl]phenyl]ethanoate], the “tolerability by the cells” value in data set [1] and in data set [2] was “well tolerated” in each case.
